Laboratory results from patent US6699459B2, “Methods of treating lung inflammation” (The Board of Regents of the University of Texas System, priority 2001, dated 2004).

Columns and labels:
[1] = test system: RANTES; assay: RSV-induced RANTES secretion in A549 cells (ELISA); type: cell-based, human; conditions: for RSV-induced RANTES secretion: concentration not given, data not shown; for RSV-induced RANTES production: A549 cells, 24 hours, ELISA
Protocol: (§1) Cell culture and infection of epithelial cells with RSV. A549, human alveolar type II-like epithelial cells (ATCC, Manassas, Va.), were maintained in F12K medium containing 10% (v/v) fetal bovine serum (FBS), 10 mM glutamine, 100 IU/ml penicillin and 100 μg/ml streptomycin. Small alveolar epithelial cells (SAE) were obtained from Clonetics (San Diego, Calif.) and grown according to the company instructions. Cell monolayers were infected with RSV at multiplicity of infection (MOI) of 1 (unless otherwise stated), as described (17). An equivalent amount of a 20% sucrose solution was added to uninfected A549 cells, as a control. For the antioxidant experiments, cells were pretreated with the antioxidants for one hour and then infected in the presence of the antioxidants. Since BHA was diluted in ethanol, equal amounts of ethanol were added to untreated cells, as a control. Total number of cells, cell viability and viral replication, following antioxidant treatment, were measured by trypan blue exclusion and by plaque assay, respectively. RANTES ELISA. Immunoreactive RANTES was quantitated by a double antibody ELISA kit (DuoSet, R&D Systems, Minneapolis, Minn.) following the manufacturer's protocol.

[2] = test system: RANTES; assay: RSV-induced RANTES secretion in SAE cells (ELISA); type: cell-based, human; conditions: 20 mM, 24 hours, ELISA
Protocol: as §1

[3] = test system: NOS-2; conditions: retinal epithelial cells, LPS/Interferon-γ; Faure et al. (40); cited from earlier work
[4] = test system: STAT; assay: RSV-induced STAT activation in alveolar epithelial cells; type: cell-based

Compound: COC(=O)[C@@H](N)CCCNC(=N)N[N+](=O)[O-] [L-NAME]
- RSV-induced RANTES secretion [1]: no changes

Compound: C[S+](C)[O-] [DMSO, dimethylsulphoxide]
- RSV-induced RANTES production ([1]; 2% (v/v)): significantly block

Compound: CNC(=N)NCCC[C@H](N)C(=O)O [L-NMMA]
- RSV-induced RANTES secretion [1]: no changes

Compound: CC(=O)N[C@@H](CS)C(=O)O [NAC, N-acetyl cystein, reference compound]
- RSV-induced RANTES production ([1]; 20 mM): significantly block
- RSV-induced RANTES production [2]: significantly reduced

Compound: S=C(S)N1CCCC1 [PDTC]
- NOS-2 induction [3]: able to inhibit

Compound: CN(C)C(=S)N(C)C [TMTU, tetramethyl thiourea, reference compound]
- RSV-induced RANTES production ([1]; 20 mM): significantly block
- RSV-induced RANTES production [2]: significantly reduced

Compound: c1ccc2c(c1)[I+]c1ccccc1-2 [DPI]
- STAT activation following RSV infection [4]: greatly reduces (or abolishes)
